Experimental data taken from US12551570B2, “Compounds comprising cleavable linker and uses thereof” (IntoCell, Inc., priority 2019, dated 2026).

Assays:
[1] = Plasma stability test, human plasma; assay type: in vitro ADME; conditions: 37° C., 300 μM
Protocol: (§1) Compound A-2 or A-3 and MPS used as an internal standard were dissolved in DMSO to achieve a concentration of 60 mM. Then, each of human plasma (Biochemed 752PR-SC-PMG), mouse plasma (Biochemed 029-APSC-MP), rat plasma (Biochemed 031-APSC-MP), and beagle dog plasma (Biochemed 013-APSC-MP) were mixed with the solution of the compound and MPS to achieve a final concentration of 300 μM (final 0.5% DMSO). The resulting plasma mixtures were incubated at 37° C. Aliquots were taken before the reaction and after 1 day, 2 days, 4 days, and 7 days. Each aliquot was 300 μL. To complete the reaction, two-fold volume of acetonitrile was added, followed by brief vortexing and centrifugation for plasma protein precipitation. Each supernatant obtained after centrifugation was collected and analyzed by HPLC. Compounds A-2 and A-3 were detected and quantitated in the mouse and human plasma for up to 7 days (>95%). […] The results of the plasma stability studies are shown in Tables 3 and 4 and FIGS. 6 and 7.

[2] = Plasma stability test, mouse plasma; assay type: in vitro ADME; conditions: 37° C., 300 μM
Protocol: as §1

Structure (SMILES) | Remaining Substrate, %, Human Plasma ([1]; 0 days) | Remaining Substrate, %, Human Plasma ([1]; 1 day) | Remaining Substrate, %, Human Plasma ([1]; 2 days) | Remaining Substrate, %, Human Plasma ([1]; 4 days) | Remaining Substrate, %, Human Plasma ([1]; 7 days) | Remaining Substrate, %, Mouse Plasma ([2]; 0 days) | Remaining Substrate, %, Mouse Plasma ([2]; 1 day) | Remaining Substrate, %, Mouse Plasma ([2]; 2 days) | Remaining Substrate, %, Mouse Plasma ([2]; 4 days) | Remaining Substrate, %, Mouse Plasma ([2]; 7 days)
CC(C)(C)OC(=O)N[C@@H](Cc1ccc(OS(=O)(=NCCOCCOCCOCCN=[N+]=[N-])Oc2ccccc2O[C@@H]2O[C@H](CO)[C@H](O)[C@H](O)[C@H]2O)cc1)C(=O)O (stereo partly drawn) [Compound A-2] | 100% | 100% | 104% | 99% | 101% | 100% | 102% | 100% | 97% | 95%
C[N+]1(Cc2ccc(OS(=O)(=NCCOCCOCCOCCN=[N+]=[N-])Oc3ccccc3O[C@@H]3O[C@H](CO)[C@H](O)[C@H](O)[C@H]3O)cc2)CCCC[C@@H]1C(=O)Nc1ccccc1 (stereo partly drawn) [Compound A-3] | 100% | 97% | 98% | – | 99% | 100% | 94% | 90% | – | 92%
